Test results as given in patent US10336707B2, “Heterocyclic derivatives modulating activity of certain protein kinases” (EUDENDRON S.R.L., priority 2014, dated 2019).
Where two headings read alike, the source gives them in different places.

Legend:
[1] = target: T1, RET M918T (Homo sapiens, UniProt P07949, M918T); assay: Radiometric protein kinase assay (33PanQuinase Activity Assay), RET M918T; assay type: biochemical; conditions: ATP 0.3 μM
T1 construct: either as full-length or enzymatically active fragments; purchased ProQinase GmbH (Freiburg, Germany)
Description: (§1) A proprietary radiometric protein kinase assay (33PanQuinase® Activity Assay) developed by ProQuinase GmbH (Freiburg, Germany) was used for measuring the kinase activity of selected protein kinases. All assays were performed in FlashPlates™ wells 96 Perkin Elmer (Boston, Mass., USA) in a reaction volume of 50 μl. The reaction mixture was obtained in 4 steps in the following order: • 1. 10 μl of a solution of non-radioactive ATP in water; • 2. 25 μl of assay buffer/[γ-^33P]-ATP mixture • 3. 5 μl of test sample in 10% DMSO • 4. 10 μl of enzyme/substrate mixture
(§2) All protein kinases provided by ProQinase were expressed in Sf9 insect cells or in E. coli as recombinant GST-fusion proteins or His-tagged proteins, either as full-length or enzymatically active fragments. […] Kinases from external vendors (CAR=Carna Biosciences Inc.; INV=Life Technologies (Invitrogen Corporation); MIL=Merck-Millipore (Millipore Corporation), were expressed, purified and quality-controlled by virtue of the vendors readings.
(§3) A stock solution of compound of formula (I) was diluted to 5×10-04M/100% DMSO. […] Incorporation of 33Pi (counting of “cpm”) was determined with a microplate scintillation counter (Microbeta, Wallac). […]
(§4) Based on each 10 corresponding residual activities, IC50 values were calculated using Prism 5.04 for Windows (Graphpad, San Diego, Calif.). […]

[2] = target: T2, ALK wild-type (GST-His-tag) (Homo sapiens, UniProt Q9UM73); assay: Radiometric protein kinase assay (33PanQuinase Activity Assay), ALK wild-type; assay type: biochemical; conditions: ATP 0.3 μM
T2 construct: either as full-length or enzymatically active fragments; purchased ProQinase GmbH (Freiburg, Germany)
Description: as §1, §2, §3, §4

[3] = system: Karpas 299 lymphoma cell line positive for the oncogenic fusion protein NPM-ALK; assay: Tritiated thymidine uptake cell proliferation assay, Karpas 299; assay type: cell-based; conditions: Homo sapiens
Description: (§5) Method: Tritiated Thymidine Uptake Cell Proliferation Assay
(§6) The following procedure was used with parent untransformed BaF3 cells, BaF3 cells transformed with the oncogenic fusion protein NPM/ALK, NPM/ALK positive SUDHL-1 cells, NPM/ALK positive SUPM2, ALK-negative HL60 cells, NPM/ALK positive KARPAS-299 cells. The parent untransformed BaF3 cells or Alk-negative HL60 cells are used as controls. Cells were seeded in U-bottomed 96-well plates at 10000 cells/well in a volume of 100 μl in supplemented medium. In the case of the parent untransformed BaF3 cells, the medium was supplemented with IL-3. Serial dilutions of inhibitors were added to the appropriate wells and volumes adjusted to 200 μl. Controls were treated with the equivalent volume of vehicle, DMSO, alone. Plates were incubated at 37° C. for 72 h. 3[H]-thymidine (1 μCi/well) was added for the last 16 h of incubation. Cells were harvested on to paper filters and 3[H]-thymidine incorporation was measured using a scintillation counter (1430 MicroBeta, Wallac, Turku, Finland). The 50% inhibitory concentration (IC50) was defined as the concentration of inhibitor, expressed in nanomolar units, that gave a 50% decrease in 3[H]-thymidine uptake compared with controls.
In Table 1 are listed results for selected examples of compounds of the invention, reported as percentage of inhibition of cell proliferation at 200 nM, obtained from cellular assays in Karpas 299 lymphoma cell line positive for the oncogenic fusion protein NPM-ALK.

[4] = target: T3, BaF3 cell line transfected with the oncogenic fusion protein NPM-ALK and expressing the mutation L1196M (Homo sapiens, UniProt Q9UM73, L1196M, cells depend on it); assay: Tritiated thymidine uptake cell proliferation assay, BaF3 NPM-ALK L1196M; assay type: cell-based, murine
T3 construct: fused on or other part: P06748 (Nucleophosmin)
Description: as §5, §6
In Table 2 are listed results for selected examples of compounds of the invention, reported as percentage of inhibition of cell proliferation at 200 nM, obtained from cellular assays in BaF3 cell line transfected with the oncogenic fusion protein NPM-ALK and expressing the mutation L1196M.
In Table 3 are listed averaged IC50 values of cell proliferation inhibition for selected examples of compounds of the present invention, obtained from cellular assays in BaF3 cell line transfected with the oncogenic fusion protein NPM-ALK and expressing the mutation L1196M. The letter “A” designates an IC50 value between 1 nM and 50 nM, the letter “B” designates an IC50 value between 50 nM and 100 nM, the letter “C” designates an IC50 value between 100 and 500 nM.

[5] = target: T4, ROS (Homo sapiens, UniProt P08922); assay: Radiometric protein kinase assay (33PanQuinase Activity Assay), ROS; assay type: biochemical; conditions: ATP 0.3 μM
T4 construct: either as full-length or enzymatically active fragments; purchased ProQinase GmbH (Freiburg, Germany)
Description: as §1, §2, §3, §4

T3 sequence (Q9UM73 whole entry L1196M, the tested form may be a part): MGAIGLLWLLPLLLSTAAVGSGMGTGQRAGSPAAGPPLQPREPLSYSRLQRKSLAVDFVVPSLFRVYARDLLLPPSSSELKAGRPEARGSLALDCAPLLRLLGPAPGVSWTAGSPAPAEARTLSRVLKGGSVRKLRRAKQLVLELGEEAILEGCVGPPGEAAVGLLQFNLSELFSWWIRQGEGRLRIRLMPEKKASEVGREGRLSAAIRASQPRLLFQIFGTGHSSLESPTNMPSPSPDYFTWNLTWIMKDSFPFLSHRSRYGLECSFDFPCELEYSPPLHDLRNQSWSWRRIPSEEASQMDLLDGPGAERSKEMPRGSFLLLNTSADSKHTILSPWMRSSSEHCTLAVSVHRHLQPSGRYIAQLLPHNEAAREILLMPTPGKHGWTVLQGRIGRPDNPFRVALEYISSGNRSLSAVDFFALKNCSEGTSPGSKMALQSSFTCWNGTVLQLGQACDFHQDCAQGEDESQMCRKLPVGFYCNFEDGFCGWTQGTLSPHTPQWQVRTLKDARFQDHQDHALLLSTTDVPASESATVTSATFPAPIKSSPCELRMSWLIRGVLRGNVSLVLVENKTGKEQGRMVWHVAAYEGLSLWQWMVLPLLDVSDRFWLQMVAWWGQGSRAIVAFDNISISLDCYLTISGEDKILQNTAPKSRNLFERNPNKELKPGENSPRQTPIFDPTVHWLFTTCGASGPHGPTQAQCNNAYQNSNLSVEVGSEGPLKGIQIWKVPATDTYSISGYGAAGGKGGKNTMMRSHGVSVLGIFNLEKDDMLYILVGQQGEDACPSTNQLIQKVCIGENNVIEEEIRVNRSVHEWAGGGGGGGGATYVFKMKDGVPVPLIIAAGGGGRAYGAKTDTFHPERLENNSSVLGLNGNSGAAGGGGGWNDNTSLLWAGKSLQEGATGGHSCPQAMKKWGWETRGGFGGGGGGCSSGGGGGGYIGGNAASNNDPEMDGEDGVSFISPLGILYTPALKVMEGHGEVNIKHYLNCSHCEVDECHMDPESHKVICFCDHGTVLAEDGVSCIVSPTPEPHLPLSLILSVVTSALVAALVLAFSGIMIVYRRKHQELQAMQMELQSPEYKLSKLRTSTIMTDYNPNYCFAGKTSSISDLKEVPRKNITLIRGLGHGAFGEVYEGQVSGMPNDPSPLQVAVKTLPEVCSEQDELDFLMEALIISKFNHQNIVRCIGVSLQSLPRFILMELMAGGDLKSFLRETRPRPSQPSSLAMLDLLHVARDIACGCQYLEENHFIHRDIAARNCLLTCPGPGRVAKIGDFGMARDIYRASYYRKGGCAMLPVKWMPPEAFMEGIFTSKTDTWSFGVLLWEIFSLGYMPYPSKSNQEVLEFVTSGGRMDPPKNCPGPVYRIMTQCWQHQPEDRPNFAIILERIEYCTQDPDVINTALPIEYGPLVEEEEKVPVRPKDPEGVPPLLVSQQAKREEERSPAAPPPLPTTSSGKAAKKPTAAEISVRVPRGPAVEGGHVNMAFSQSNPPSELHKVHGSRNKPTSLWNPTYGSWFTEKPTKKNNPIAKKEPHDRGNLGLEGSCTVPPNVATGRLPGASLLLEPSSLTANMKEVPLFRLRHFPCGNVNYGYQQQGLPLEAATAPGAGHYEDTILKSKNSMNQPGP
T1 sequence (P07949 29-1114 M918T): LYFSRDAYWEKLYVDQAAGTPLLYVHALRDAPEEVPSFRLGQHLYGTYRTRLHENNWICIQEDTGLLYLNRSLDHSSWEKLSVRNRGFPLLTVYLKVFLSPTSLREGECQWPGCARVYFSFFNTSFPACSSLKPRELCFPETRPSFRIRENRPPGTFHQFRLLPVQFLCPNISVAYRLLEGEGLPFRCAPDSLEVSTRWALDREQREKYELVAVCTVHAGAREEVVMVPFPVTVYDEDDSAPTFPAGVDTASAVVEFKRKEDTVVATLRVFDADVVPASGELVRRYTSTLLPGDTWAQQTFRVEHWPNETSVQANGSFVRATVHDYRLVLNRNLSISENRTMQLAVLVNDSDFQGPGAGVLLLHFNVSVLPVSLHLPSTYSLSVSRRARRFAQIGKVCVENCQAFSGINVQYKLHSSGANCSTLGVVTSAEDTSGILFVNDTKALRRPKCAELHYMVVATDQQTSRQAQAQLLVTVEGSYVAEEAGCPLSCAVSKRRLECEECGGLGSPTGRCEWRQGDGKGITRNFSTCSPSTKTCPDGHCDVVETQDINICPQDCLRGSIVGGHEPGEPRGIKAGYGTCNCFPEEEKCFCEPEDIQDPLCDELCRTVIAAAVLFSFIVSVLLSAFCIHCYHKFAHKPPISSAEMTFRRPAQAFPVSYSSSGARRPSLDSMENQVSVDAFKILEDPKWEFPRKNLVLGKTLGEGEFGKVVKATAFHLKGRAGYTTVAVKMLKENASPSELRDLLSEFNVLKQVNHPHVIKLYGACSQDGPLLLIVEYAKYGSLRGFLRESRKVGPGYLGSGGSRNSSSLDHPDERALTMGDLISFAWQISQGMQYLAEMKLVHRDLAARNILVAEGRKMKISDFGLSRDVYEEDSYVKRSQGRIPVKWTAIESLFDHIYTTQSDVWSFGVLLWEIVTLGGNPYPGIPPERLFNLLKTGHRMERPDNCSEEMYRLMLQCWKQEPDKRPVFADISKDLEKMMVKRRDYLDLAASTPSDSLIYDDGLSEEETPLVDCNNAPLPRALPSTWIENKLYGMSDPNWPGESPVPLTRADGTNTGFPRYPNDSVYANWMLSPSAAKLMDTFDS
T4 sequence (P08922 1883-2347 limits assumed): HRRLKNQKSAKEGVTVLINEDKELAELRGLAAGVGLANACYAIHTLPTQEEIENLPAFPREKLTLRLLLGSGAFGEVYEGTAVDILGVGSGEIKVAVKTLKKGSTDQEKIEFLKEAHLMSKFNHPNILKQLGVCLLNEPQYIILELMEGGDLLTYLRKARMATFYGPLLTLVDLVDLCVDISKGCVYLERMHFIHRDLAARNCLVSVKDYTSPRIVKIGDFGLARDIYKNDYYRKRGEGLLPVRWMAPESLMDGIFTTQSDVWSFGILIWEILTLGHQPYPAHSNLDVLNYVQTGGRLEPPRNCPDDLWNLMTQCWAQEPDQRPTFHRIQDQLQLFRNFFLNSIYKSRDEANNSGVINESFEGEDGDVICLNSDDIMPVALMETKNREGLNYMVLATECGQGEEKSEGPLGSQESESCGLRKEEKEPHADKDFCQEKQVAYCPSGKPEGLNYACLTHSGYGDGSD
T2 sequence (Q9UM73 19-1620): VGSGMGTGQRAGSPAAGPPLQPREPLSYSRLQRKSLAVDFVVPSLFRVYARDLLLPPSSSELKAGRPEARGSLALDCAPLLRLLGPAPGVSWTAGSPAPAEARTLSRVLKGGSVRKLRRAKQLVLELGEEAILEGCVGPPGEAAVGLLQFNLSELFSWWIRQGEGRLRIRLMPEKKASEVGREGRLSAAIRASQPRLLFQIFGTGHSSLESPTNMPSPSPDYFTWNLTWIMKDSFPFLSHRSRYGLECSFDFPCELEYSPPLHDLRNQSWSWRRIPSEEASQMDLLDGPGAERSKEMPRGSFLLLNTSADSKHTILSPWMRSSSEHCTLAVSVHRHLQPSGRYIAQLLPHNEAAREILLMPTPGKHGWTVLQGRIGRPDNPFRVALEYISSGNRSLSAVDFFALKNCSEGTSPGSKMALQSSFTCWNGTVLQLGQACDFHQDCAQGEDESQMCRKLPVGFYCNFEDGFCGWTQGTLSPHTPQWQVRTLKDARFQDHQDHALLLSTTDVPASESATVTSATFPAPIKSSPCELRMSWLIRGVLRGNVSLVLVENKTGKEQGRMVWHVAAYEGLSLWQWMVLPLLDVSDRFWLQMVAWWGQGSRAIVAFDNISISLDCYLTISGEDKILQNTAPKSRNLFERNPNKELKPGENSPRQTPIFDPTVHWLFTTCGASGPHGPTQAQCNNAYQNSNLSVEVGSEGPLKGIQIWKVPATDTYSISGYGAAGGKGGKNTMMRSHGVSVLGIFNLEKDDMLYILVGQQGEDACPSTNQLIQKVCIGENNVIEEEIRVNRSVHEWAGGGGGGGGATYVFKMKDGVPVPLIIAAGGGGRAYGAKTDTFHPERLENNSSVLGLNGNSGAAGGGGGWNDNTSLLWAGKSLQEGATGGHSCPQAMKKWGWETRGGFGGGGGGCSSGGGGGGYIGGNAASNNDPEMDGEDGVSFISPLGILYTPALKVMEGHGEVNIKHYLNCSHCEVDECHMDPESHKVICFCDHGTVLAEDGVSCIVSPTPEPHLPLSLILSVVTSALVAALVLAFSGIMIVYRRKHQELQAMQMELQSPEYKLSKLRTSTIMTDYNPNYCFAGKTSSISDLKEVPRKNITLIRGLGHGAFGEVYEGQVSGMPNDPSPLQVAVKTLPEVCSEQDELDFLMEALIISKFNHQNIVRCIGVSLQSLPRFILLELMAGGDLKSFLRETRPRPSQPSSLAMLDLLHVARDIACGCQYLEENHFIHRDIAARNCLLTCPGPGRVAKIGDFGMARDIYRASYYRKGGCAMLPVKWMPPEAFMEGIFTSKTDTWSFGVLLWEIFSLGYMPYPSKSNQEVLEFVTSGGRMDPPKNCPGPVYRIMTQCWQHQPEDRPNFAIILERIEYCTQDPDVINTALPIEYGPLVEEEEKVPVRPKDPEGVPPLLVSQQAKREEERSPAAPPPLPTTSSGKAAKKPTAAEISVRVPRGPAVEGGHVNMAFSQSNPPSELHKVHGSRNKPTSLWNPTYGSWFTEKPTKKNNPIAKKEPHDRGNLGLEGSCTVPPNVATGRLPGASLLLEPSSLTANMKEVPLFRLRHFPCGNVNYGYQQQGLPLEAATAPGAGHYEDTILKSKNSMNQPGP

SMILES: CN1CCN(c2ccc(C(=O)Nc3n[nH]c4cc(-c5ccc(O)cc5)c(Cc5cc(F)cc(F)c5)cc34)c(NC3CCOCC3)c2)CC1 [Example 3, N-[5-[(3,5-difluorophenyl)methyl]-6-(4-hydroxyphenyl)-1H-indazol-3-yl]-4-(4-methylpiperazin-1-yl)-2-(tetrahydropyran-4-ylamino)benzamide]
- IC50 [1]: 0.12 µM
- IC50 [2]: 0.029 µM
- inhibition at 0.2 µM ([3]; KARPAS-299, read-out: % Inhibition Karpas 299 cells): 93%
- IC50 ([3]; KARPAS-299, read-out: IC50 of cellular proliferation, Karpas299): 0.023 µM
- GI50 ([4]; averaged IC50 values of cell proliferation inhibition, class letters, read-out: IC50 BaF3 NPM-ALK L1196M cells): 0.001 to 0.05 µM
- GI50 ([4]; cell line BaF3 NPM-ALK L1196M, read-out: IC50 of cellular proliferation, BaF3 NPM-ALK L1196M): 0.006 µM
- % Inhibition BaF3 NPM-ALK L1196M cells ([4]; percentage of inhibition of cell proliferation at 200 nM): 83%
- IC50 [5]: 0.16 µM
